In patent US20070128217A1 (priority 2003, published 2007):

What was measured:
[1] = system: control sera (pooled serum of ten healthy LUMC hospital workers; commercial negative donor pooled serum from the Dutch bloodbank); assay type: binding, human; design: Binding of Control serum LUMC to linear peptides / Binding of Control serum Blood-bank to linear peptides / Binding of Control serum LUMC to looped peptides / Binding of Control Serum Blood-Bank to Looped peptides / Binding of Control serum LUMC to linear peptides of the protein M of SARS-CoV Urbani / Binding of Control serum Blood-bank to linear peptides of the protein M of SARS-CoV Urbani / Binding of Control serum LUMC to looped peptides of the protein M of SARS-CoV Urbani / Binding of Control Serum Blood-Bank to Looped peptides of the protein M of SARS-CoV Urbani: unit not given here
[2] = system: antibodies in sera from SARS patients (sera 1a, 1b, 2, 6, 37, 62, London, SARS-yellow, SARS-green); assay type: binding, human; design: Binding of serum 6 to linear peptides of protein X1 of SARS-CoV Urbani / Binding of serum 37 to linear peptides of protein X1 of SARS-CoV Urbani / Binding of serum 6 to looped/cyclic peptide (PEPSCAN-ELISA) / Binding of serum 37 to looped/cyclic peptide (PEPSCAN-ELISA) / Binding of serum 37 to looped/cyclic peptides of protein X1 of SARS-CoV Urbani / Binding of serum 6 to linear peptides of protein X2 / Binding of serum 37 to linear peptides of protein X2 / Binding of serum 37 to looped/cyclic peptides of protein X2 of SARS-CoV Urbani / Binding of serum 6 to linear peptides of protein M of SARS-CoV Urbani / Binding of serum 37 to linear peptides of protein M of SARS-CoV Urbani / Binding of serum 6 to looped/cyclic peptides of protein M of SARS-CoV Urbani / Binding of serum 37 to looped/cyclic peptides of protein M of SARS-CoV Urbani / Binding of serum 6 to linear peptides of protein X3 of SARS-CoV Urbani / Binding of serum 37 to linear peptides of protein X3 of SARS-CoV Urbani / Binding of serum 37 to looped/cyclic peptides of protein X3 of SARS-CoV Urbani / Binding of serum 6 to linear peptides of protein X4 of SARS-CoV Urbani / Binding of serum 37 to linear peptides of protein X4 of SARS-CoV Urbani / Binding of serum 37 to looped/cyclic peptides of protein X4 of SARS-CoV Urbani / Binding of serum 6 to linear peptides of protein X5 of SARS-CoV Urbani / Binding of serum 37 to linear peptides of protein X5 of SARS-CoV Urbani / Binding of serum 37 to looped/cyclic peptides of protein X5 of SARS-CoV Urbani / Binding of serum 6 to linear peptides of protein N of SARS-CoV Urbani / Binding of serum 37 to linear peptides of protein N of SARS-CoV Urbani / Binding of serum 6 to linear peptide (PEPSCAN-ELISA) / Binding of serum 1a to looped/cyclic peptides of protein N of SARS-CoV Urbani / Binding of serum 1b to looped/cyclic peptides of protein N of SARS-CoV Urbani / Binding of serum 2 to looped/cyclic peptides of protein N of SARS-CoV Urbani / Binding of serum 6 to looped/cyclic peptides of protein N of SARS-CoV Urbani / Binding of serum 37 to looped/cyclic peptides of protein N of SARS-CoV Urbani / Binding of serum 62 to looped/cyclic peptides of protein N of SARS-CoV Urbani / Binding of serum London to looped/cyclic peptides of protein N of SARS-CoV Urbani / Binding of serum SARS-green to looped/cyclic peptides of protein N of SARS-CoV Urbani: unit not given here
[3] = system: recombinant human anti-SARS-CoV antibody 03-018; assay type: binding; design: Binding of antibody 03-018 to linear peptides of the N protein of SARS-CoV Urbani / Binding of antibody 03-018 to looped/cyclic peptides of the N protein of SARS-CoV Urbani: unit not given here
[4] = system: rabbit serum obtained by immunizing a rabbit with the SARS-CoV strain Frankfurt 1; assay type: binding; design: Binding of a rabbit serum to linear peptides / Binding of a rabbit serum to looped peptides / Rabbit serum linear peptides / Rabbit serum looped peptides / Binding of a rabbit serum to linear peptides of protein N of SARS-CoV Urbani (Rabbit serum linear peptides) / Binding of a rabbit serum to looped/cyclic peptides of protein N of SARS-CoV Urbani (Rabbit serum looped peptides): unit not given here

Row | Sequence | Binding of Control Serum Blood-Bank to Looped peptides [1] | Binding of Control serum Blood-bank to linear peptides [1] | Binding of Control serum LUMC to linear peptides [1] | Binding of Control serum LUMC to looped peptides [1] | Binding of serum 1a to linear peptides of protein N of SARS-CoV Urbani [2] | Binding of serum 1a to looped/cyclic peptides of protein N of SARS-CoV Urbani [2] | Binding of serum 1b to linear peptides of protein N of SARS-CoV Urbani [2] | Binding of serum 1b to looped/cyclic peptides of protein N of SARS-CoV Urbani [2] | Binding of serum 2 to linear peptides of protein N of SARS-CoV Urbani [2] | Binding of serum 2 to looped/cyclic peptides of protein N of SARS-CoV Urbani [2] | Binding of serum 6 to looped/cyclic peptides of protein N of SARS-CoV Urbani [2] | Binding of serum 37 to looped/cyclic peptides of protein N of SARS-CoV Urbani [2] | Binding of serum 62 to looped/cyclic peptides of protein N of SARS-CoV Urbani [2] | Binding of serum London to looped/cyclic peptides of protein N of SARS-CoV Urbani [2] | Binding of serum SARS-green to looped/cyclic peptides of protein N of SARS-CoV Urbani [2] | Binding of serum SARS-yellow to looped/cyclic peptides of protein N of SARS-CoV Urbani [2] | Binding of antibody 03-018 to linear peptides of the N protein of SARS-CoV Urbani [3] | Binding of antibody 03-018 to looped/cyclic peptides of the N protein of SARS-CoV Urbani [3] | Binding of a rabbit serum to linear peptides of protein N of SARS-CoV Urbani (Rabbit serum linear peptides) [4] | Binding of a rabbit serum to looped/cyclic peptides of protein N of SARS-CoV Urbani (Rabbit serum looped peptides) [4] | other results
1 | QRRPQGLPNNTASWF | 0.8 | 0.7 | 0.6 | 0.9 | 0.2 | 0.5 | 0.1 | 0.3 | 0.1 | 0.5 | 0.4 | 0.7 | 0.6 | 0.5 | 0.7 | 0.6 | 0.1 | 0.2 | 0.1 | 0.6 | Binding of serum 6 to linear peptides of protein N of SARS-CoV Urbani [2]: 0.2; Binding of serum 37 to linear peptides of protein N of SARS-CoV Urbani [2]: 0.6; Binding of serum 62 to linear peptides of protein N of SARS-CoV Urbani [2]: 0.7; Binding of serum London to linear peptides of protein N of SARS-CoV Urbani [2]: 0.4; Binding of serum SARS-green to linear peptides of protein N of SARS-CoV Urbani [2]: 0.2; Binding of serum SARS-yellow to linear peptides of protein N of SARS-CoV Urbani [2]: 0.7
2 | SRNSTPGSSRGNSPA | 0.7 | 0.9 | 0.9 | 0.7 |  | 0.6 |  | 0.6 |  | 0.4 | 0.4 | 0.5 | 0.5 | 0.4 | 0.3 | 0.4 | 0.1 | 0.2 | 0.1 | 0.6 | Binding of serum 1a to linear peptide (PEPSCAN-ELISA) [2]: 0.7; Binding of serum 1b to linear peptide (PEPSCAN-ELISA) [2]: 0.5; Binding of serum 2 to linear peptide (PEPSCAN-ELISA) [2]: 0.4; Binding of serum 6 to linear peptide (PEPSCAN-ELISA) [2]: 0.2; Binding of serum 37 to linear peptide (PEPSCAN-ELISA) [2]: 0.8; Binding of serum 62 to linear peptide (PEPSCAN-ELISA) [2]: 0.9; Binding of serum London to linear peptide (PEPSCAN-ELISA) [2]: 0.6; Binding of serum SARS-green to linear peptide (PEPSCAN-ELISA) [2]: 0.4; Binding of serum SARS-yellow to linear peptide (PEPSCAN-ELISA) [2]: 0.7
3 | TGPEASLPYGANKEG | 0.8 | 0.9 | 1.1 | 0.6 | 0.3 | 0.3 | 0.2 | 0.2 | 0.3 | 0.5 | 0.4 | 0.6 | 0.5 | 0.6 | 0.7 | 0.4 | 0.1 | 0.2 | 0.1 | 0.5 | Binding of serum 6 to linear peptides of protein N of SARS-CoV Urbani [2]: 0.3; Binding of serum 37 to linear peptides of protein N of SARS-CoV Urbani [2]: 0.7; Binding of serum 62 to linear peptides of protein N of SARS-CoV Urbani [2]: 0.9; Binding of serum London to linear peptides of protein N of SARS-CoV Urbani [2]: 0.7; Binding of serum SARS-green to linear peptides of protein N of SARS-CoV Urbani [2]: 0.8; Binding of serum SARS-yellow to linear peptides of protein N of SARS-CoV Urbani [2]: 0.6
4 | ELSPRWYFYYLGTGP | 0.7 | 0.6 | 0.5 | 0.5 | 0.2 | 0.3 | 0.2 | 0.2 | 0.3 | 0.4 | 0.2 | 0.8 | 0.7 | 0.4 | 0.3 | 0.5 | 0.1 | 0.2 | 0.1 | 0.4 | Binding of serum 6 to linear peptides of protein N of SARS-CoV Urbani [2]: 0.2; Binding of serum 37 to linear peptides of protein N of SARS-CoV Urbani [2]: 0.8; Binding of serum 62 to linear peptides of protein N of SARS-CoV Urbani [2]: 0.7; Binding of serum London to linear peptides of protein N of SARS-CoV Urbani [2]: 0.5; Binding of serum SARS-green to linear peptides of protein N of SARS-CoV Urbani [2]: 0.4; Binding of serum SARS-yellow to linear peptides of protein N of SARS-CoV Urbani [2]: 0.7
